We go through 2 compounds from US6482809B1, “Use of tiludronic acid and derivatives thereof in poultry for the preparation of a medicinal product for preventing and treating osteoporosis” (Ceva Sante Animale, priority 2000, dated 2002).

Series [1] has as its system trabecular bone of laying hens. The settings on record: cited from earlier work.
Series [2] relates to medullary bone of laying hens. The settings on record: 18 weeks after the onset of laying; treated before the onset of laying; cited from earlier work.
Series [3] concerns egg production of laying hens. The settings on record: administered during laying; decrease or even stoppage of laying as a function of the dose; cited from earlier work.
Series [4] has as its system medullary bone of the tarsometatarsal bone of hens. Briefly: Histomorphometric examination of medullary bone volume of the tarsometatarsal bone after a single subcutaneous administration. It counts as in vivo, hens of ISA Brown strain. As for the experimental part:
(§1) A total number of 216 hens of ISA Brown strain between 15 and 17 weeks old was divided into 3 groups for the purpose of evaluating the effects on bone of a single subcutaneous administration of tiludronic acid, in the form of its sodium salt (disodium tiludronate).
(§2) Three doses were compared: 0, 1 and 10 mg/kg (corresponding amount of tiludronic acid/kg). The tiludronic acid was administered in the form of injectable aqueous solutions such that the volume injected per bird was 1 ml per kilo of live weight. The tiludronic acid solutions were thus concentrated to 0.1% and 1% for the doses of 1 and 10 mg/kg, respectively. The control group received a placebo corresponding to water for an injectable preparation. The injections were performed subcutaneously in the region above the superficial pectoral muscle.
(§3) The hens were housed in individual cages in the same building at controlled temperature and hygrometry. Each animal was identified by a number carried on a ring attached to a wing. They received the same standard feed for laying hens, freely throughout the duration of the study. The drinking water was also distributed freely.
(§4) The average age of onset of laying for the hens in this strain is 20 weeks. Consequently, the average delay between the treatment and the age of onset of laying had to be from 3 to 5 weeks. The duration of the study was 40 weeks. At the end of the study, the hens were 55 weeks old.
(§5) Half of the total number was sacrificed on laying the first egg, in order to carry out a histomorphometric examination performed on a decalcified section of the proximal region of one of the tarsometatarsal bones in order to measure the trabecular and medullary bone volumes.
(§6) The other half of the total number of hens was monitored up to 55 weeks of age (i.e. after about 34 weeks of laying), at which point all the remaining animals were sacrificed. The same bone examination was carried out on these animals as on the hens sacrificed after laying the first egg.
(§7) The bone parameters were compared by means of a one-factor variance analysis (dose factor).
(§8) The histomorphometric examination carried out allows the changes in the structure of the bone to be assessed.

The test system of series [5] is osteoporosis in menopausal women. The settings on record: 50 or 200 mg per person orally; cited from earlier work.
Series [6] has as its system trabecular bone of the tarsometatarsal bone of hens. Briefly: Histomorphometric examination of trabecular bone volume of the tarsometatarsal bone after a single subcutaneous administration. Format: in vivo, hens of ISA Brown strain. Here is the method: as §1, §2, §3, §4, §5, §6, §7, §8
Setting [7] is: at 55 weeks old, 1 mg/kg single subcutaneous injection.
Where [8] appears, read: at 55 weeks old, 10 mg/kg single subcutaneous injection.

On to `NCCCC(O)(P(=O)(O)O)P(=O)(O)O` [alendronic acid], for which, in series [1] (after laying for 18 weeks, 0.01 mg/kg s.c., 6 administrations (total 0.06 mg/kg) from 14 weeks old), the “Trabecular bone volume higher than that of the control hens” value is recorded as “about 35%”. In addition, the “Trabecular bone volume higher on average in the treated hens than in the control hens” value in series [1] (onset of laying, 0.01 mg/kg subcutaneously, repeated before laying) was not above 30%. Moreover, in series [2], the “Medullary bone volume less than that of the control animals” value is given as “about 20%”. Besides, in series [3], the “Effect on egg production” value is listed as “harmful effect on egg production”.
tiludronic acid: the “Average medullary bone volumes, comparison between the groups” value in series [4] (at 55 weeks old, 0, 1 and 10 mg/kg) is reported as “not significantly different between the groups”. The results for the “Volume of medullary bone of the tarsometatarsal bone” value in series [4] (setting [7]) and in series [4] (setting [8]) were 2.75 ± 2.72% and 3.53 ± 3.04%, respectively. Also, in series [4] (at 55 weeks old, 10 mg/kg), the “Medullary bone volume higher than that in the control animals” value was determined as 20%. In addition, the “Medullary bone volumes, comparison between the groups” value in series [4] (onset of laying, 0, 1 and 10 mg/kg) was “does not reveal any significant difference between the groups”. In series [5], the “Efficacy in osteoporosis in menopausal women” value was “not demonstrated their efficacy”. Also, the “Trabecular bone loss during laying” value in series [6] (1 mg/kg, onset of laying to 55 weeks old) is listed as “no trabecular bone loss took place during laying”. Also, the “Trabecular volume versus controls” value in series [6] (at 55 weeks of age, 10 mg/kg) is on record as “significantly higher than that of the controls”. Also, the “Trabecular bone volume of the tarsometatarsal bone” value in series [6] (setting [7]) came out at 11.3 ± 2.5%; in series [6] (setting [8]), 12.0 ± 2.0%; in series [6] (onset of laying, 1 mg/kg single subcutaneous injection at 15-17 weeks old) it was 10.9 ± 2.9%; in series [6] (onset of laying, 10 mg/kg single subcutaneous injection at 15-17 weeks old), 13.7 ± 3.3%. In addition, the “Variation of trabecular bone volume between the two periods” value in series [6] (onset of laying to 55 weeks old, 1 mg/kg) is listed as “+4%”; in series [6] (onset of laying to 55 weeks old, 10 mg/kg) it was −12%. Moreover, the “Gain in trabecular bone volume compared with the controls” value in series [6] (onset of laying, 10 mg/kg) stood at 12%.
